Article PMC9298201, “4‐Sulfamoylphenylalkylamides as Inhibitors of Carbonic Anhydrases Expressed in Vibrio cholerae” (Chemmedchem, 2021)
Several values for one entry are separate records, joined by “and”; a condition that tells them apart may be missing. Equal entries are not always repeated. Where two headings read alike, the source gives them in different places.

Columns and labels:
Vibrio cholerae = system: Vibrio cholerae; set-up: method as in PMID 26235676, PMID 27283786, PMID 23488877; details: thus reducing the growth rates of pathogen; cited from earlier work
VchCAγ = VchCAγ (Vibrio cholerae, UniProt Q9KVT1); experiment: stopped-flow CO2 hydrase assay, VchCAγ; assay type: biochemical
Chain of VchCAγ (Q9KVT1 1-184): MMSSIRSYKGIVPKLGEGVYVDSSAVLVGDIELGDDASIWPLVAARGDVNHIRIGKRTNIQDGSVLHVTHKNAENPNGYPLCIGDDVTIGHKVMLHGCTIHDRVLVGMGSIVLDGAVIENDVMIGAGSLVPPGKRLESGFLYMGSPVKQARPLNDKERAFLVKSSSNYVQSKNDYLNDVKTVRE

VchCAβ = VchCAβ (Vibrio cholerae, UniProt A0A086SLX8); experiment: biochemical
Chain of VchCAβ (A0A086SLX8 entry or part of it): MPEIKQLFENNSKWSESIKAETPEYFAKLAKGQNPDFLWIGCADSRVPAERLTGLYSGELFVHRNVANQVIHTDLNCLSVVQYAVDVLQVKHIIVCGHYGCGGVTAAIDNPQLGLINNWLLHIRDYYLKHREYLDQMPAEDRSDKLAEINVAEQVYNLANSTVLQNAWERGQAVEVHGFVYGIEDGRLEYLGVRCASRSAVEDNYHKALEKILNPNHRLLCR

VchCAα = VchCAα (Vibrio cholerae, UniProt Q9KMP6); experiment: stopped-flow CO2 hydrase assay, VchCAα; assay type: biochemical
Chain of VchCAα (Q9KMP6 entry or part of it): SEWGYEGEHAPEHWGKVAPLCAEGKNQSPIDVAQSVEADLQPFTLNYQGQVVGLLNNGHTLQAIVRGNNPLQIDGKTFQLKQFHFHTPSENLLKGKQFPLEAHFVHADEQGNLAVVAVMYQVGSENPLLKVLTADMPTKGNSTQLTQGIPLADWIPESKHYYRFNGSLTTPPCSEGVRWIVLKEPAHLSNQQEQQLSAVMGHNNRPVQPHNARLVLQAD

hCA I = molecular target: T1, hCA I (Homo sapiens, UniProt P00915); experiment: stopped-flow CO2 hydrase assay, hCA I; assay type: biochemical
T1 construct: made in house
T1 sequence (P00915 whole entry): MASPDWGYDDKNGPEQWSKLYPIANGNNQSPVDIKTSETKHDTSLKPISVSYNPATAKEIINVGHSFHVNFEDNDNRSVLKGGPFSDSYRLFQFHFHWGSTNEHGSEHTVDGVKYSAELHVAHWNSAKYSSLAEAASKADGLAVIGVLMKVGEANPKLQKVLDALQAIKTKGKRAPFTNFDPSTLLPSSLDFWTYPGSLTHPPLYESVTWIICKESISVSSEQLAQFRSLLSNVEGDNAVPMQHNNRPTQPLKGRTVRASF
Description: (§1) The uncatalyzed rates were determined in the same manner and subtracted from the total observed rates.

hCA II = molecular target: T2, hCA II (Homo sapiens, UniProt P00918); experiment: stopped-flow CO2 hydrase assay, hCA II; assay type: biochemical; details: errors ±10 %, three assays
T2 construct: made in house
Description: as §1

Row | SMILES | effect on bicarbonate mediated virulence gene induction (Vibrio cholerae) | Ki (VchCAγ; stopped-flow CO2 hydrase assay, errors ±10 %, three assays, read-out: Ki VchCA γ) [nM] | Ki (VchCAβ) [nM] | Ki (VchCAα) [nM] | Ki (VchCAγ) [nM] | Ki (hCA I) [nM] | Ki (hCA II) | melting point [°C] | fold more selective (VchCAγ) over hCA I (VchCAγ; selectivity VchCAγ vs hCA I) [fold] | fold more selective (VchCAγ) over hCA II (VchCAγ; selectivity VchCAγ vs hCA II) [fold] | fold more active against VchCAα over hCA I (VchCAα; selectivity VchCAα vs hCA I) [fold]
1 | CCOc1ccc2nc(S(N)(=O)=O)sc2c1 [EZA, ethoxzolamide] | suppressed bicarbonate mediated virulence gene induction |  |  |  |  |  |  |  |  |  | 
2 | NCC(=O)Nc1ccc(S(N)(=O)=O)cc1 [compound 10, 2‐amino‐N‐(4‐sulfamoylphenyl)acetamide] |  | 744 | 3170 | 8 |  |  |  |  |  |  | 
3 | C[C@H](N)C(=O)Nc1ccc(S(N)(=O)=O)cc1 [compound 11, (S)‐2‐Amino‐N‐(4‐sulfamoylphenyl)propanamide] |  |  | 381 | 35.7 | 23.7 | 869 | 383 nM | 216 to 217 |  |  | 
4 | CC(C)[C@H](N)C(=O)Nc1ccc(S(N)(=O)=O)cc1 [compound 12, (S)‐2‐amino‐3‐methyl‐N‐(4‐sulfamoylphenyl)butanamide] |  |  | 362 | 659 | 88.6 | 609 | 183 nM |  |  |  | 
5 | NS(=O)(=O)c1ccc(NC(=O)CNC(=O)c2ccccc2)cc1 [compound 13, (S)‐N‐(2‐Oxo‐2‐((4‐sulfamoylphenyl)amino)ethyl)benzamide] |  |  | 884 | 0.4 | 563 | 524 | 19.9 nM | 214 to 216 |  |  | 
6 | C[C@H](NC(=O)c1ccccc1)C(=O)Nc1ccc(S(N)(=O)=O)cc1 [compound 14, (S)‐N‐(1‐oxo‐1‐((4‐sulfamoylphenyl)amino)propan‐2‐yl)benzamide] |  |  | 3000 | 9.5 | 80.5 | 46.1 | 4.4 nM | 260 to 261 |  |  | 
7 | CC(C)[C@H](NC(=O)c1ccccc1)C(=O)Nc1ccc(S(N)(=O)=O)cc1 [compound 15, (S)‐N‐(3‐methyl‐1‐oxo‐1‐((4‐sulfamoylphenyl)amino)butan‐2‐yl)benzamide] |  |  | 389 | 9.2 | 24.3 | 51.5 | 3.7 nM | 279 to 280 |  |  | 
8 | NS(=O)(=O)c1ccc(NC(=O)CNC(=O)c2ccccc2Cl)cc1 [compound 20, 2‐Chloro‐N‐(2‐oxo‐2‐((4‐sulfamoylphenyl)amino)ethyl)benzamide] |  |  | 796 | 8.9 | 8930 | 564 | 29.6 nM | 249 to 251 |  |  | 
9 | NS(=O)(=O)c1ccc(NC(=O)CNC(=O)c2cccc(Cl)c2)cc1 [compound 21, 3‐Chloro‐N‐(2‐oxo‐2‐((4‐sulfamoylphenyl)amino)ethyl)benzamide] |  |  | 82.8 | 18.5 | 364 | 127 | 14.7 nM | 262 to 264 |  |  | 
10 | NS(=O)(=O)c1ccc(NC(=O)CNC(=O)c2ccc(Cl)cc2)cc1 [compound 22, 4‐Chloro‐N‐(2‐oxo‐2‐((4‐sulfamoylphenyl)amino)ethyl)benzamide] |  |  | 59.7 | 9.6 | 282 | 81.3 | 3.3 nM | 226 to 228 |  |  | 
11 | NS(=O)(=O)c1ccc(NC(=O)CNC(=O)c2ccco2)cc1 [compound 31, N‐(2‐Oxo‐2‐((4‐sulfamoylphenyl)amino)ethyl)furan‐2‐carboxamide] |  |  | 460 | 6.8 | 7750 | 621 | 22.2 nM | 238 to 240 |  |  | 
12 | NS(=O)(=O)c1ccc(NC(=O)CNC(=O)c2cccs2)cc1 [compound 32, N‐(2‐Oxo‐2‐((4‐sulfamoylphenyl)amino)ethyl)thiophene‐2‐carboxamide] |  |  | 636 | 4.8 | 6020 | 430 | 38.5 nM | 265 to 267 |  |  | 
13 | NS(=O)(=O)c1ccc(CNC(=O)CNC(=O)c2ccccc2)cc1 [compound 36, N‐(2‐Oxo‐2‐((4‐sulfamoylbenzyl)amino)ethyl)benzamide] |  |  | 82.8 | 8.2 | 230 | 754 | 368 nM | 211 to 213 |  |  | 
14 | C[C@H](NC(=O)c1ccccc1)C(=O)NCc1ccc(S(N)(=O)=O)cc1 [compound 37, (S)‐N‐(1‐Oxo‐1‐((4‐sulfamoylbenzyl)amino)propan‐2‐yl)benzamide] |  |  | 93.3 | 56.5 | 261 | 722 | 302 nM | 178 to 180 |  |  | 
15 | CC(C)[C@H](NC(=O)c1ccccc1)C(=O)NCc1ccc(S(N)(=O)=O)cc1 [compound 38, (S)‐N‐(3‐Methyl‐1‐oxo‐1‐((4‐sulfamoylbenzyl)amino)butan‐2‐yl)benzamide] |  |  | 94.6 | 37.6 | 332 | 505 | 170 nM | 213 to 215 |  |  | 
16 | NS(=O)(=O)c1ccc(CNC(=O)CNC(=O)c2ccco2)cc1 [compound 39, N‐(2‐Oxo‐2‐((4‐sulfamoylbenzyl)amino)ethyl)furan‐2‐carboxamide] |  |  | 394 | 35.7 | 734 | 1440 | 316 nM |  |  |  | 
17 | C[C@H](NC(=O)c1ccco1)C(=O)NCc1ccc(S(N)(=O)=O)cc1 [compound 40, (S)‐N‐(1‐Oxo‐1‐((4‐sulfamoylbenzyl)amino)propan‐2‐yl)furan‐2‐carboxamide] |  |  | 612 | 8.5 | 92.8 | 6280 | 6100 nM and 6090 nM |  | ~70 | ~70 | ~730
18 | CC(C)[C@H](NC(=O)c1ccco1)C(=O)NCc1ccc(S(N)(=O)=O)cc1 [compound 41, (S)‐N‐(3‐Methyl‐1‐oxo‐1‐((4‐sulfamoylbenzyl)amino)butan‐2‐yl)furan‐2‐carboxamide] |  |  | 707 | 97.8 | 95.3 | 215 | 19.6 nM | 226 to 228 |  |  | 
19 | NS(=O)(=O)c1ccc(CNC(=O)CNC(=O)c2cccs2)cc1 [compound 42, N‐(2‐Oxo‐2‐((4‐sulfamoylbenzyl)amino)ethyl)thiophene‐2‐carboxamide] |  |  | 627 | 9.3 | 244 | 828 | 87.3 nM | 220 to 222 |  |  | 
20 | C[C@H](NC(=O)c1cccs1)C(=O)NCc1ccc(S(N)(=O)=O)cc1 [compound 43, (S)‐N‐(1‐Oxo‐1‐((4‐sulfamoylbenzyl)amino)propan‐2‐yl)thiophene‐2‐carboxamide] |  |  | 691 | 63.1 | 93.2 | 651 | 71.1 nM | 221 to 223 |  |  | 
21 | CC(C)[C@H](NC(=O)c1cccs1)C(=O)NCc1ccc(S(N)(=O)=O)cc1 [compound 44, (S)‐N‐(3‐Methyl‐1‐oxo‐1‐((4‐sulfamoylbenzyl)amino)butan‐2‐yl)thiophene‐2‐carboxamide] |  |  | 94.4 | 30.5 | 84.8 | 94.9 | 18.4 nM | 144 to 146 |  |  | 
